Tests used:
[1] = target: T1, Poly [ADP-ribose] polymerase tankyrase-1 (Homo sapiens, UniProt O95271); experiment: Inhibition of TNKS1 (unknown origin) using biotinylated NAD as substrate preincubated for 30 mins followed by substrate addition and measured after 1 hr by BioTek synergy 2 microplate reader analysis
T1 sequence (O95271 whole entry): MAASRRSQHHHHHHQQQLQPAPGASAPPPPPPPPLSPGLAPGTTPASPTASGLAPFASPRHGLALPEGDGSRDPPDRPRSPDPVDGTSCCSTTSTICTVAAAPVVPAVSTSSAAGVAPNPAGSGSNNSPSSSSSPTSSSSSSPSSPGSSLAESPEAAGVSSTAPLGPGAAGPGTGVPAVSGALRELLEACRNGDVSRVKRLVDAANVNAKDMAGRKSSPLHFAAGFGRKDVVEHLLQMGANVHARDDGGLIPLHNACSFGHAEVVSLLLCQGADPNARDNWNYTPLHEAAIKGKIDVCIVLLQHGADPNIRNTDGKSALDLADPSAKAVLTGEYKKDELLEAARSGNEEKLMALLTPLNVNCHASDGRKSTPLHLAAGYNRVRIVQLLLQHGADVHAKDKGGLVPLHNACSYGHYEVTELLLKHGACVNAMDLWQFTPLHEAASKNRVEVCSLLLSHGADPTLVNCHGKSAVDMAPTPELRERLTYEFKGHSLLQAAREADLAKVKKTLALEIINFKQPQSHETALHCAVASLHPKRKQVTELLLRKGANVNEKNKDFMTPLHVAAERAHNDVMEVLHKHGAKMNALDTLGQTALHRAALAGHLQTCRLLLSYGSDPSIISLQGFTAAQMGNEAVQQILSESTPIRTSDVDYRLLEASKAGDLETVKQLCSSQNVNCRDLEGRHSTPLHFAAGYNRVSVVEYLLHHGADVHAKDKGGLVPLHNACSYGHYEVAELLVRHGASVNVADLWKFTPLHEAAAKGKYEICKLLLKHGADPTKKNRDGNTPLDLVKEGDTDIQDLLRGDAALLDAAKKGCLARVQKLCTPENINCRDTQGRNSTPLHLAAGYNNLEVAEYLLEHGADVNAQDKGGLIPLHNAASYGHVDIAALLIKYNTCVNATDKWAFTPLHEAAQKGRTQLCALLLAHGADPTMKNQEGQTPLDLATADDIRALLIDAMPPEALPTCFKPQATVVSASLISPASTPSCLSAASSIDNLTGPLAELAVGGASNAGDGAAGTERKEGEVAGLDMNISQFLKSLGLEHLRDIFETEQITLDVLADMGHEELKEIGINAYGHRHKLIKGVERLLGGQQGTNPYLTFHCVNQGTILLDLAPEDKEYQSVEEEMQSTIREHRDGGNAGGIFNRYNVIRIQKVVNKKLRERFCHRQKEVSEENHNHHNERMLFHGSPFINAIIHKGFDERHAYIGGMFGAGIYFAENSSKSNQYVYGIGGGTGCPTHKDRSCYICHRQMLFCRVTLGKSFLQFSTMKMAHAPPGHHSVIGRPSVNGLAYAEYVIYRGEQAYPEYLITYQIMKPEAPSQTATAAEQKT

[2] = target: T2, Poly [ADP-ribose] polymerase tankyrase-1 (Homo sapiens) (UniProt O95271); experiment: Inhibition of TNKS1 (unknown origin) at 10 uM using biotinylated NAD as substrate preincubated for 30 mins followed by substrate addition and measured after 1 hr by BioTek synergy 2 microplate reader analysis relative to control; settings: time 90.0 min
T2 sequence (whole entry): T1 sequence (O95271 whole entry)

[3] = target: T2, Poly [ADP-ribose] polymerase tankyrase-1 (Homo sapiens); experiment: Inhibition of TNKS1 (unknown origin) at 100 nM using biotinylated NAD as substrate preincubated for 30 mins followed by substrate addition and measured after 1 hr by BioTek synergy 2 microplate reader analysis relative to control; settings: time 90.0 min
[4] = target: Poly [ADP-ribose] polymerase 1 (Homo sapiens) (UniProt P09874); experiment: Inhibition of human PARP1 at 0.5 uM relative to control
Chain of Poly [ADP-ribose] polymerase 1 (Homo sapiens) (P09874 whole entry): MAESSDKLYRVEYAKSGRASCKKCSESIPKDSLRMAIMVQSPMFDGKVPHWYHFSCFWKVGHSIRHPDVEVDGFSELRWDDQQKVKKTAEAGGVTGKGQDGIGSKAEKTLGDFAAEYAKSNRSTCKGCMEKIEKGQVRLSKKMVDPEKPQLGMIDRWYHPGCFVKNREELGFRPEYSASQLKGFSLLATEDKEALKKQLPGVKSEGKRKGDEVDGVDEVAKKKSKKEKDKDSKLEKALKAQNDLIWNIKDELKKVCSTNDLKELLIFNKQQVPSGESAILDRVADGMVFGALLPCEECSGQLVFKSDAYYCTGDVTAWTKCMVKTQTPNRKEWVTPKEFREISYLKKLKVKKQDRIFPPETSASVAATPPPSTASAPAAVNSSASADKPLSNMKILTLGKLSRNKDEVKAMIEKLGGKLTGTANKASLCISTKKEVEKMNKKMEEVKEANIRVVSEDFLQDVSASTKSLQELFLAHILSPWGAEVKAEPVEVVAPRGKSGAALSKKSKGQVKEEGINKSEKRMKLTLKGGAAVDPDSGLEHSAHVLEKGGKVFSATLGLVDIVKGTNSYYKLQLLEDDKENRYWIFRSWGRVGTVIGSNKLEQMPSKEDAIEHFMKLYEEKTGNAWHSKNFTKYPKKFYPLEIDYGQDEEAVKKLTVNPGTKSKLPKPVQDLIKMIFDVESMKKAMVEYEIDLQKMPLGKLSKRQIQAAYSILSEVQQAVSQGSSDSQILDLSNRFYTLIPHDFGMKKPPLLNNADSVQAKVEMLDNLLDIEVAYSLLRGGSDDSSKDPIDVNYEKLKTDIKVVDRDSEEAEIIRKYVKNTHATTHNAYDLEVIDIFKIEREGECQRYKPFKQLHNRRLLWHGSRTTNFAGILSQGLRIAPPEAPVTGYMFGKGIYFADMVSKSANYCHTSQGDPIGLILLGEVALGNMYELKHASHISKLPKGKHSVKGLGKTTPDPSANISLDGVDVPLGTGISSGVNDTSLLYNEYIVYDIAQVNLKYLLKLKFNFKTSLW

[5] = target: Poly [ADP-ribose] polymerase 1 (Homo sapiens) (UniProt P09874); experiment: Inhibition of human PARP1 at 50 nM relative to control
[6] = target: Poly [ADP-ribose] polymerase 2 (Homo sapiens) (UniProt Q9UGN5); experiment: Inhibition of human PARP2 at 0.5 uM relative to control
Chain of Poly [ADP-ribose] polymerase 2 (Homo sapiens) (Q9UGN5 whole entry): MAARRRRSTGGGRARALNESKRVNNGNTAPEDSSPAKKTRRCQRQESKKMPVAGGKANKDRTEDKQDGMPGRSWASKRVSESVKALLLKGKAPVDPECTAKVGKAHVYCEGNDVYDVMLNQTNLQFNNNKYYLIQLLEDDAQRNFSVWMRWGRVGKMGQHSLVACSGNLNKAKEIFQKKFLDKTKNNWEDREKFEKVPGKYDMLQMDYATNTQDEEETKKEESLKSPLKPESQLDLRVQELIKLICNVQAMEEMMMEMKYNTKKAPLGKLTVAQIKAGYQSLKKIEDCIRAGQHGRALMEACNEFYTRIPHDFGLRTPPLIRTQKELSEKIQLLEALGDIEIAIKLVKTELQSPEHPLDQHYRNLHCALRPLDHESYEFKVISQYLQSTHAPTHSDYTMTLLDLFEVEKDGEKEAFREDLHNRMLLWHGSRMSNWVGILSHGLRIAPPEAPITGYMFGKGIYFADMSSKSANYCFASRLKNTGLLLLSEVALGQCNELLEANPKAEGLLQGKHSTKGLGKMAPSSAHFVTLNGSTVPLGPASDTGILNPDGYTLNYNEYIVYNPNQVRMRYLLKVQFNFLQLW

[7] = target: Poly [ADP-ribose] polymerase 2 (Homo sapiens) (UniProt Q9UGN5); experiment: Inhibition of human PARP2 at 50 nM relative to control
[8] = target: T3, Poly [ADP-ribose] polymerase tankyrase-2 (Homo sapiens) (UniProt Q9H2K2); experiment: Inhibition of TNKS2 (unknown origin) at 0.5 uM relative to control
T3 sequence (whole entry): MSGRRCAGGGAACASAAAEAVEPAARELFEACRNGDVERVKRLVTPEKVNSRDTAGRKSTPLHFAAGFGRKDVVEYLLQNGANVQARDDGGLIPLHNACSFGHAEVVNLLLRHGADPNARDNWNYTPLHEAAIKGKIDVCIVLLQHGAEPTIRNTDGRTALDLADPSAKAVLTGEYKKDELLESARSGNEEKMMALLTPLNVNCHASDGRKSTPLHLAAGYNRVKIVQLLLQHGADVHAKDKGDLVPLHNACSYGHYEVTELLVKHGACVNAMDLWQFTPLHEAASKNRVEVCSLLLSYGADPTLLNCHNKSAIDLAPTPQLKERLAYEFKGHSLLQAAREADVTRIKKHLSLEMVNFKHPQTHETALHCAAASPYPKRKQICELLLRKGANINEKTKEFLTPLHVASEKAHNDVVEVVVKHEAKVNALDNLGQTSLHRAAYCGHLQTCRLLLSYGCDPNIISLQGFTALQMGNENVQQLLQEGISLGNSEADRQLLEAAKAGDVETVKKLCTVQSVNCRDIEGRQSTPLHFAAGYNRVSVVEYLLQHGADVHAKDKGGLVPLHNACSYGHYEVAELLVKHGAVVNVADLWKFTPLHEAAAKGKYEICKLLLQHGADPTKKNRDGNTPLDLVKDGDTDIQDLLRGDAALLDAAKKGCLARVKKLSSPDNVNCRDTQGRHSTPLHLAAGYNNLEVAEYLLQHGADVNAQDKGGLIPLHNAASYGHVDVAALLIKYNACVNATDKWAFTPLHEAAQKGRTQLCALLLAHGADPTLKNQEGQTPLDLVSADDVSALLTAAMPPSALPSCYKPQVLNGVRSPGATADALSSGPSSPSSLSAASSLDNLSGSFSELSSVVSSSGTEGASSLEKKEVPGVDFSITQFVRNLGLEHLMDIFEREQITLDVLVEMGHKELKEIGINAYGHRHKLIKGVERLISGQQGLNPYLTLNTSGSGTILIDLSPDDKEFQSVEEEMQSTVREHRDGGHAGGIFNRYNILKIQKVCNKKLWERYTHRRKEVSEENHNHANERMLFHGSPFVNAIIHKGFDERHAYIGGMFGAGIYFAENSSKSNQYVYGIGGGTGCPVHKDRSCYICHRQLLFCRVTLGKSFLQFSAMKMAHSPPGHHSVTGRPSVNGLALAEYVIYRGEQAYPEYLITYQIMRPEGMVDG

[9] = target: T3, Poly [ADP-ribose] polymerase tankyrase-2 (Homo sapiens); experiment: Inhibition of TNKS2 (unknown origin) at 50 nM relative to control

Row | Structure (SMILES) | IC50 [1] [nM] | inhibition [2] [%] | other results
1 | CC(=O)N1CCC[C@H]1C(=O)NCCNC(=O)Cn1[nH]c(=O)c2ccccc2c1=O | 4900 |  | 
2 | COc1ccc2c(c1)C(CC(=O)NCCNC(=O)CCn1c(=O)[nH]c(=O)c3ccccc31)CC2=O (stereo not drawn) | 15 |  | 
3 | O=C(NCc1ccc(-c2ccc3c(c2)CCCO3)cc1)c1nc2ccccc2c(=O)[nH]1 |  | 74 | 
4 | CC(=O)N1CCC[C@H]1C(=O)NCCNC(=O)CCn1c(=O)[nH]c(=O)c2ccccc21 | 26000 |  | 
5 | CNC(=O)[C@H](CNC(=O)c1cccc(COc2ccccc2C(N)=O)c1)NC(=O)COc1cc(C)cc2oc(=O)c3c(c12)CCC3 | 33 |  | 
6 | O=C(Cc1n[nH]c(=O)c2ccccc12)OCC(=O)N1CCN(c2ccccn2)CC1 | 22 | 100 | inhibition [3]: 78%
7 | CNC(=O)[C@H](CNC(=O)Cn1[nH]c(=O)c2ccccc2c1=O)NC(=O)c1cnc(C)cn1 | 140 |  | 
8 | O[C@H](c1ccccc1)c1cn(C2CCN(Cc3cnc4ccccc4c3)CC2)nn1 |  | 5 | 
9 | O=C(Cn1cnc2ccccc2c1=O)N1CCC(c2nnc(-c3ccco3)s2)CC1 |  | 0 | 

Second part, led by results:

Row | IC50 [1] [nM] | inhibition [2] [%] | Structure (SMILES) | other results
10 |  | 35 | O=C(Cc1n[nH]c(=O)c2ccccc12)Nc1ccc(Cc2nc3ccccc3s2)cc1 | 
11 |  | 97 | COc1ccc(C(N)=O)cc1NC(=O)c1cccc(-c2cnc3[nH]c(=O)n(C)c3c2)c1 | inhibition [3]: 3%
12 |  | 67 | O=C(CCc1nc2ccccc2c(=O)[nH]1)Nc1ccc(-n2cnnn2)cc1 | 
13 | 8.3 |  | O=C(CCn1c(=O)[nH]c(=O)c2ccccc21)NCCNC(=O)c1cnc2ccccc2c1 | 
14 |  | 7 | Cc1ccc(C)c(NC(=O)CSc2nnc(Cc3cc(=O)[nH]c(=O)[nH]3)n2-c2ccc(Cl)cc2)c1 | inhibition [3]: 0%
15 | 75 |  | Cc1ccc2c(c1)NC(=O)C2CC(=O)NCCNC(=O)CCn1c(=O)[nH]c(=O)c2ccccc21 (stereo not drawn) | 
16 | 69 |  | O=C(NCCNC(=O)c1n[nH]c(=O)c2ccccc12)c1cccc(CN2C(=O)CNC2=O)c1 | inhibition [4]: 47%; inhibition [5]: 17%; inhibition [6]: 53%; inhibition [7]: 3%; inhibition [8]: 93%; inhibition [9]: 49%
17 | 47 |  | Cc1cnc(C(=O)NCCNC(=O)Cn2[nH]c(=O)c3ccccc3c2=O)cn1 | inhibition [4]: 52%; inhibition [5]: 14%; inhibition [6]: 52%; inhibition [7]: 0%; inhibition [8]: 92%; inhibition [9]: 49%

Reference: ChEMBL document CHEMBL5331077, “Combining pharmacophore models derived from DNA-encoded chemical libraries with structure-based exploration to predict Tankyrase 1 inhibitors” (Eur J Med Chem, 2023)
